Reference: patent US12215234B2, “Process for the purification of methylene blue” (RK Pharma Solutions LLC, priority 2019, dated 2025)
“And” between values parts separate entries of the source, which are not always exact repeats. Equal values may be shown once.

Key:
Type in all cases: physicochemical
[1] = pH of formulation containing methylene blue made by the prior-art process; details: methylene blue by process of Fundamental Processes of Dye Chemistry, isolated in the range of 3.0-4.5; pH increases
Text: Desired pH for the methylene blue formulation as per USP is in between 3.0-4.5.
Another area of concern is pH of formulated methylene blue. USP mentions that pH of methylene blue formulation should be in between about 3.0 to about 4.5. In formulation, pH of Methylene blue solution tends to increase drastically when the pH of the active pharmaceutical ingredient (API) is kept in between about 3.0 to about 4.5 as per prior art process. To overcome such a problem, the reaction mass pH is preferably kept less than about 2 and more preferably pH of less than about 1. Suitable acids for the adjustment of pH to below about 1 includes, but is not limited to, hydrochloric acid.

[2] = Stability study of methylene blue at about 40° C. (40/75), six months; details: stability at 40° C., Trial 1-3
Protocol: (§1) Methylene blue product obtained by this process is then loaded for stability at about 20-25° C. and at about 40° C. Purity and metal content of Methylene blue is tested for up to six months.

[3] = Stability study of methylene blue at about 20-25° C. (25/60), six months; set-up: Highest Unknown / Total impurities / Azure B / Azure C: unit not given here; details: stability at 25° C., Trial 1-3
Protocol: as §1

pH of the formulation containing methylene blue [1]: above 4.5 | Azure B ([2]; impurity, 6M 40/75): 2.41 and 2.26 | Azure C ([2]; impurity, 6M 40/75): 0.01 | Metal Content Mn ([2]; 6M 40/75): 0.49 ppm and 0.51 ppm | Total impurities ([2]; 6M 40/75): 2.5 and 2.46 and 2.52 | Total metal content ([2]; 6M 40/75, sum of Al, Cr, Cu, Mn, Zn): 74.97 ppm and 62.91 ppm and 62.48 ppm | Purity ([2]; profile 6M 40/75): 97.5 and 97.54 and 97.48 | Azure B ([3]; impurity, 6M 25/60): 2.37 and 2.2 and 2.17 | Azure C ([3]; impurity, 6M 25/60): 0.01 | Highest Unknown ([3]; impurity, 6M 25/60): 0.04 and 0.06 and 0.08 | Metal Content Mn ([3]; 6M 25/60): 0.68 ppm and 0.61 ppm and 0.48 ppm | Total impurities ([3]; 6M 25/60): 2.46 and 2.4 and 2.44 | Total metal content ([3]; 6M 25/60, sum of Al, Cr, Cu, Mn, Zn): 76.51 ppm and 75.6 ppm and 57.41 ppm | Purity ([3]; profile 6M 25/60): 97.54 and 97.6 and 97.56
SMILES: CN(C)c1ccc2nc3ccc(N(C)C)cc3[s+]c2c1 [Methylene blue, 3,7-bis(dimethylamino)phenothiazin-5-ylium chloride]
